# Test results reported in patent US8629239B2, “Methylocystis strain SB2 materials and methods” (Iowa State University Research Foundation, Inc., priority 2010, dated 2014).
# How the values were obtained:
# [1] = tested on: Methylocystis strain SB2; test: Growth of Methylocystis strain SB2 on carbon sources; assay type: cell-based; conditions: for OD600 reached (final / max OD600) / growth rate: NMS medium, 10 μM copper, 30° C.; for growth rate: exponential kinetics; for growth on substrate as carbon source: substrates 0.05%, methanol 0.01-1% (v/v), acetate 0.01-0.5% (w/v), ethanol 0.05-1% (v/v)
# Description: Methylocystis strain SB2 was incubated in 50 ml of NMS medium in 250 ml flask supplemented with 10 μM of copper as CuCl2. The flasks were incubated at 30° C. with shaking at 250 rpm. Cell growth was monitored by measuring OD600 using a Spectronic-20 (Milton Roy Company, USA).
# Growth of strain SB2 on Alternative Carbon Sources: Growth on methanol (0.05% v/v) and methylamine, glucose, fructose, sucrose, galactose, xylose, arabinose, and maltose (all at a concentration of 0.05% w/v) was tested, as were the organic acids formate, pyruvate, succinate, malate, citrate and oxalate (all added as sodium salts at a concentration of 0.05% w/v).
# At this pH, 99% of the added acetate exists as the dissociated form. It is believed that undissociated acetate is transferred across the cell membrane, thus the proton motive force is dissipated to transport acetate into the cell (Axe and Bailey, 1995), which inhibits microbial growth.
# [2] = tested on: Methylocystis strain SB2; test: Degradation of chlorinated hydrocarbons by Methylocystis strain SB2 grown on ethanol or methane; assay type: cell-based; conditions: individual chlorinated hydrocarbons
# Description: The ability of Methylocystis strain SB2 to degrade chlorinated hydrocarbon, including trichloroethylene (TCE), trans-dichloroethylene (t-DCE), vinyl chloride (VC), 1,1,1-trichloroethane (1,1,1-TCA), dichloromethane (DCM), and chloroform (CF), was compared when Methylocystis strain SB2 was grown on ethanol relative to when it was grown with methane.
# [3] = tested on: Methylosinus trichosporium OB3b expressing pMMO; conditions: 50 μM each of VC, t-DCE, and TCE; 110 hours of growth on methane; Lee et al., 2006; cited from earlier work
# [4] = dimensionless, at 30° C.; cited from earlier work
# [5] = Abiotic loss of chlorinated ethenes from serum vials with sterile NMS medium; assay type: physicochemical; conditions: 40 μM each in 5 ml sterile NMS medium; 216 hours
# Description: Growth and degradation of chlorinated solvents. The growth of Methylocystis strain SB2 and degradation of the mixture of TCE, t-DCE, and VC were measured in three different conditions: methane, acetate, and acetate with acetylene (a selective inhibitor of both MMOs) (Prior and Dalton, 1985). The method used previously by Lee et al. (2006) and Yoon and Semrau (2008) was slightly modified for these assays. For all three growth conditions, Methylocystis strain SB2 was initially grown on methane to the mid-exponential phase (OD600 nm of 0.3-0.4). This cell suspension was flushed with compressed air as described above to remove residual methane and diluted to OD600<0.03 in 50 ml of fresh media in 250 ml Erlenmeyer flask. For growth on methane, methane was added to the headspace to an air:methane ratio of 1:1 and the cells were grown back to an OD600 of ca. 0.06. After the flask was flushed with compressed air as described earlier, five milliliter aliquots were transferred to serum vials specially fabricated to measure growth at OD600 over time as described earlier (Lee et al., 2006). Teflon-coated butyl-rubber stoppers (National Scientific Co., Duluth, Ga.) were used to seal the serum vials. After the serum vials were securely sealed, 5 ml of the air in headspace was replaced with 5 ml of methane to ensure sufficient methane for growth. For growth on acetate, 1 mM of sodium acetate (Im et al., 2010) instead of methane was added to the diluted cell suspension in 250-ml Erlenmeyer flasks. […] The growth of Methylocystis strain SB2 was monitored until the cell growth was no longer observed. The initial and final concentration of TCE, t-DCE, and VC were measured with HP5890 Series II gas chromatograph equipped with a 75 m DB-624 column with 0.53 mm internal diameter (J&W Scientific Co.). […] TCE and t-DCE were detected with an electron capture detector (ECD) with injector, oven, and detector temperatures set to 160, 120, and 250° C., respectively. VC was detected with a flame ionization detector (FID) with injector, oven, and detector temperatures set to 140, 120, and 250° C., respectively.
# [6] = tested on: Methylocystis strain SB2; test: Degradation of chlorinated ethenes by Methylocystis strain SB2 grown on methane or acetate; assay type: cell-based; conditions: SB2 grown on CH3COOH + C2H2 (acetylene); 40 μM each of TCE, t-DCE, and VC; 216 hours
# Description: Saturated stock solutions were prepared for TCE and t-DCE as described by Chang and Alvarez-Cohen (1996). Hamilton 1700 series gas-tight syringes (Hamilton, Reno, Nev.) were used to take aliquots from the stock solutions. Gaseous compounds, i.e., methane and VC, were transferred to gas bags before use. Aliquots were taken with Precision Lok gas-tight syringes purchased from Precision Sampling Corp (Baton Rouge, La.). The amount of chlorinated solvents to be added was calculated considering dimensionless Henry's constants at 30° C. […]
# The method used previously by Lee et al. (2006) and Yoon and Semrau (2008) was slightly modified for these assays. […] The growth of Methylocystis strain SB2 was monitored until the cell growth was no longer observed. The initial and final concentration of TCE, t-DCE, and VC were measured with HP5890 Series II gas chromatograph equipped with a 75 m DB-624 column with 0.53 mm internal diameter (J&W Scientific Co.). […] TCE and t-DCE were detected with an electron capture detector (ECD) with injector, oven, and detector temperatures set to 160, 120, and 250° C., respectively. VC was detected with a flame ionization detector (FID) with injector, oven, and detector temperatures set to 140, 120, and 250° C., respectively.
# [7] = tested on: Methylocystis strain SB2; test: Nitrogen source utilization by strain SB2 with methane as carbon source; assay type: cell-based; conditions: methane as the carbon source
# Description: Many nitrogen sources were tested with methane as the carbon source: nitrate (as potassium nitrate), ammonia (as ammonium chloride), L-alanine, L-serine, L-isoluecine, L-proline, L-methionine, L-glutamine, L-asparagine, L-lysine, L-glycine, L-histidine, and L-arginine. […] The presence of nifH was confirmed using PCR using specific primers for nifH (Auman, et al., 2001; Zehr & McReynolds, 1989).
# [8] = tested on: Methylocella silvestris BL2; conditions: Dedysh, et al. (2005); cited from earlier work
# [9] = tested on: Methylocystis strain SB2; test: Growth yield and carbon conversion efficiency, Methylocystis strain SB2; assay type: cell-based; conditions: NMS, 10 μM copper, standard error in parentheses
# Description: For Table 1, the molar growth yield (g dry cell▪(mol substrate^−1)) and the efficiency of carbon conversion to cell material (g cell carbon▪(g substrate carbon)^−1) were determined in triplicate 5 ml of NMS medium supplemented with 10 μM of copper as CuCl2 using specially constructed 32.5 ml vials containing a CH4/air mixture (1:2 ratio in the headspace), or 0.10% (w/v) of sodium acetate as a sole carbon source. CH4 and acetate concentrations were measured using gas chromatography equipped with a FID (HP 5890 Series II) and ion chromatography (Dionex DX100, Sunnyvale, Calif.), respectively. Cell growth was monitored by measuring OD600 using a Spectronic-20 spectrometer (Milton Roy Company, USA). Turbidity was correlated to protein concentration using the Bio-Rad Protein Assay (Bio-Rad Laboratories, Richmond, Calif.) with bovine serum albumin (BSA) as the standard following manufacturer's instructions. To estimate the carbon content of biomass it was assumed that dry biomass was 50% protein, and C4H8O2N was the biomass elemental composition (Leak and Dalton, 1986).
# [10] = tested on: Methylocystis strain SB2; test: Growth of Methylocystis strain SB2 in the presence of chlorinated ethenes; assay type: cell-based; conditions: grown on methane in the absence of chlorinated ethenes
# Description: Methylocystis strain SB2 was initially grown on methane (1:1 methane-to-air ratio) to the mid-exponential phase (OD600 of 0.3-0.4 as measured using a Spectronic 20 spectrometer (Milton Roy Company, USA)). […] The cultures were then diluted to an OD600 of 0.06 with fresh NMS medium. Five ml aliquots were added to serum vials specially fabricated to measure growth as OD600 over time and respective growth substrates were added. For addition of methane, 5 ml of headspace was replaced with >99.99% methane after sealing the vials for a final concentration of 15% v/v in the headspace. […] Growth was monitored by measuring absorbance at 600 nm (OD600).
# For all three growth conditions, Methylocystis strain SB2 was initially grown on methane to the mid-exponential phase (OD600 nm of 0.3-0.4). This cell suspension was flushed with compressed air as described above to remove residual methane and diluted to OD600<0.03 in 50 ml of fresh media in 250 ml Erlenmeyer flask. For growth on methane, methane was added to the headspace to an air:methane ratio of 1:1 and the cells were grown back to an OD600 of ca. 0.06. […] The growth of Methylocystis strain SB2 was monitored until the cell growth was no longer observed.
# [11] = tested on: Methylocystis strain H2s; conditions: growth on acetate; Belova et al., 2010; cited from earlier work
# [12] = tested on: Methylocystis echinoides IMET 10491T; conditions: growth on acetate; Belova et al., 2010; cited from earlier work
# [13] = tested on: Methylocystis heyeri H2T; conditions: growth on acetate; Belova et al., 2010; cited from earlier work
# [14] = tested on: Methylocapsa aurea KYGT; conditions: growth on acetate; cited from earlier work
compound,measurement,setting,value
CCO [ethanol],OD600 reached (final / max OD600),[1],0.45
same,growth rate,[1],0.022 ± 0.002 h⁻¹
same,growth on substrate as carbon source,[1],grew
"Cl/C=C/Cl [t-DCE, trans-dichloroethylene]",degradation by strain SB2 grown on ethanol,[2],degraded
same,degradation by strain SB2 grown on methane,[2],degraded
same,% degraded,[3],98%
same,Henry's constants,[4],0.474
same,"Abiotic loss, % (range of duplicate samples)",[5],0 (0) %
"ClC=C(Cl)Cl [TCE, trichloroethylene]",degradation by strain SB2 grown on ethanol,[2],degraded
same,degradation by strain SB2 grown on methane,[2],degraded
same,% degraded,[3],35%
same,% Chlorinated ethene degraded (range of duplicate samples),[6],3.3%
same,Henry's constants,[4],0.458
same,"Abiotic loss, % (range of duplicate samples)",[5],5.2%
"ClC(Cl)Cl [CF, chloroform]",degradation by strain SB2 grown on ethanol,[2],not
same,degradation by strain SB2 grown on methane,[2],degraded
same,Henry's constants,[4],0.189
O=C(O)[C@@H]1CCCN1 [L-proline],utilization as nitrogen source,[7],able to utilize
"CC(Cl)(Cl)Cl [1,1,1-TCA, 1,1,1-trichloroethane]",degradation by strain SB2 grown on ethanol,[2],degraded
same,degradation by strain SB2 grown on methane,[2],degraded
same,Henry's constants,[4],0.804
NC(=O)CC[C@H](N)C(=O)O [L-glutamine],utilization as nitrogen source,[7],able to utilize
"ClCCl [DCM, dichloromethane]",degradation by strain SB2 grown on ethanol,[2],not
same,degradation by strain SB2 grown on methane,[2],not
same,Henry's constants,[4],0.125
CC[C@H](C)[C@H](N)C(=O)O [L-isoleucine],utilization as nitrogen source,[7],able to utilize
C [methane],Efficiency of carbon conversion,[8],13.2 (±0.698) %
same,Growth yield,[8],3.59 (±0.104) g cell dry weight ▪(mol substrate^−1
same,Efficiency of carbon conversion,[9],12.3 (±0.5) %
same,Growth yield,[9],3.13 (±0.12) g cell dry weight ▪(mol substrate^−1
same,specific growth rate,[10],0.057 h⁻¹
same,OD600 reached (final / max OD600),[1],0.83
same,growth rate,[1],0.052 ± 0.004 h⁻¹
O=[N+]([O-])O [nitrate],utilization as nitrogen source,[7],able to utilize
CC(=O)O [acetate],Efficiency of carbon conversion,[8],40.1 (±2.43) %
same,Growth yield,[8],20.5 (±1.24) g cell dry weight ▪(mol substrate^−1
same,max OD410,[11],~0.23
same,max OD410,[12],0.09
same,Efficiency of carbon conversion,[9],22.1 (±0.2) %
same,Growth yield,[9],12.0 (±0.13) g cell dry weight ▪(mol substrate^−1
same,max OD410,[13],0.14
same,max OD600,[14],0.3
same,OD600 reached (final / max OD600),[1],0.26
same,growth on substrate as carbon source,[1],grew
"C=CCl [VC, vinyl chloride]",degradation by strain SB2 grown on ethanol,[2],degraded
same,degradation by strain SB2 grown on methane,[2],degraded
same,% degraded,[3],97%
same,Henry's constants,[4],1.262
same,"Abiotic loss, % (range of duplicate samples)",[5],1.8%
CO [methanol],growth on substrate as carbon source,[1],no growth
N [ammonium],utilization as nitrogen source,[7],able to utilize
